Drawing on US20230087118A1, “IMIDAZO[1,2-a][sequence] DERIVATIVES AND THEIR USE IN THE TREATMENT OF DISEASE” (priority 2019, published 2023), this text covers IC50 for 37 compounds.

Counter-ions that a name gives are not always drawn.

For one test, the target named is T1, IRAK4 (Homo sapiens, UniProt Q9NWZ3).
T1 sequence (Q9NWZ3 1-460): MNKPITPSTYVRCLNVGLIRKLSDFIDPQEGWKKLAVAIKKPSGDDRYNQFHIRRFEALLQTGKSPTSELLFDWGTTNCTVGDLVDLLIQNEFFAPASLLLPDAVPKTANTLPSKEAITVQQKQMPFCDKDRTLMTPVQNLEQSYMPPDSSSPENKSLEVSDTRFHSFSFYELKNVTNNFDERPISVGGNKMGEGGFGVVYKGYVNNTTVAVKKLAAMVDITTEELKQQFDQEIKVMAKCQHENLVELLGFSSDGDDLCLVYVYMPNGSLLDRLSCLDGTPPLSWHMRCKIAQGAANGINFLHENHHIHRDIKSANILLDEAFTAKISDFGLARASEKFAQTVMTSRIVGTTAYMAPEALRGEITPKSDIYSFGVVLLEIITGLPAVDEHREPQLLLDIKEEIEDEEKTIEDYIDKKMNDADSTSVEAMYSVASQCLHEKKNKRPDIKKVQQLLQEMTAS
As to the kind of experiment: biochemical.
Settings: not given
Broadly, the IC50 is the concentration needed to halve the response being measured. A low value points to greater potency in that assay. `CCOc1nc(C(=O)Nc2cccnc2OC)cn2cc([C@]34CC[C@](C)(C3)OC4)nc12` (single isomer, unassigned) [Example 604]: the midpoint of inhibition, the IC50, lay at 0.0003 µM.
`CC(C)Oc1nc2nc([C@@]34CC[C@@](C)(C3)OC4)cn2cc1C(=O)Nc1cccn(C(F)F)c1=O` (single isomer, unassigned) [Example 628] showed an IC50 of 0.0001 µM. This IC50 is about 3-fold lower than that of the compound before.
On the same count and under the same terms, the result for `COc1cc2nc(C3CCOCC3)cn2cc1C(=O)Nc1ncnc2cccnc12` [Example 204, 7-Methoxy-N-(pyrido[3,2-d]pyrimidin-4-yl)-2-(tetrahydro-2H-pyran-4-yl)imidazo[1,2-a]pyridine-6-carboxamide] reads 0.429 µM; that for `Cn1ccc(NC(=O)c2cn3cc([C@@]45CC[C@@](C)(C4)OC5)nc3nc2OC2CCCC2)n1` (single isomer, unassigned) [Example 635], 0.0026 µM; that for `COc1ncccc1NC(=O)c1cn2cc(C34COC(C)(C3)C4)nc2cc1OC1CCC1` [Example 526, 7-Cyclobutoxy-N-(2-methoxypyridin-3-yl)-2-(1-methyl-2-oxa-bicyclo[2.1.1]hexan-4-yl)imidazo[1,2-a]pyridine-6-carboxamide], 0.0003 µM.
`COc1ncccc1NC(=O)c1cn2cc(C34COC(C)(C3)C4)nc2cc1OC(C)C` [Example 216]: the IC50 is 0.0005 µM.
On the same count and under the same terms, for `CC(C)Oc1nc2nc(C34CCC(C)(CC3)CO4)cn2cc1C(=O)Nc1ccn(C)n1` [Example 566, 7-Isopropoxy-N-(1-methyl-1H-pyrazol-3-yl)-2-(4-methyl-2-oxabicyclo[2.2.2]octan-1-yl)imidazo[1,2-a]pyrimidine-6-carboxamide] the value was 0.0009 µM.
Same read-out and setting: for `CC(C)Oc1nc2nc([C@]34CC[C@](C)(C3)OC4)cn2cc1C(=O)Nc1cnn2cc(F)cnc12` (single isomer, unassigned) [Example 631] the value was 0.0004 µM; for `Cc1cnc2c(NC(=O)c3cn4cc(C56COC(C)(C5)C6)nc4cc3O[C@H](C)C3CC3)cnn2c1` (single isomer, unassigned) [Example 657], 0.0009 µM.
On the same count and under the same terms, for `Cc1cnc2c(NC(=O)c3cn4cc(C56COC(C)(C5)C6)nc4cc3OC3CCCC3)cnn2c1` [Example 568, 7-(Cyclopentyloxy)-2-(1-methyl-2-oxabicyclo[2.1.1]hexan-4-yl)-N-(6-methylpyrazolo[1,5-a]pyrimidin-3-yl)imidazo[1,2-a]pyridine-6-carboxamide] the value was 0.0002 µM; for `COc1ncccc1NC(=O)c1cn2cc(C34CCC(C)(C3)OC4)nc2nc1OC(C)C` (stereo not shown) [Example 248], 0.0002 µM.
`Cc1cnc2c(NC(=O)c3cn4cc(C56CCC(C)(C5)OC6)nc4nc3OC(C)C)cnn2c1` (stereo not shown) [Example 569, 7-Isopropoxy-2-(1-methyl-2-oxabicyclo[2.2.1]heptan-4-yl)-N-(6-methylpyrazolo[1,5-a]pyrimidin-3-yl)imidazo[1,2-a]pyrimidine-6-carboxamide] displayed an IC50 of 0.0024 µM.
Same read-out and setting: for `CC(C)Oc1nc2nc(C34COC(C)(C3)C4)cn2cc1C(=O)Nc1cccn(C(F)F)c1=O` [Example 388, N-(1-(difluoromethyl)-2-oxo-1,2-dihydropyridin-3-yl)-7-isopropoxy-2-(1-methyl-2-oxabicyclo[2.1.1]hexan-4-yl)imidazo[1,2-a]pyrimidine-6-carboxamide] the value was 0.0002 µM; for `Cc1cnc2c(NC(=O)c3cn4cc([C@]56CO[C@H](CCO5)C6)nc4nc3OC(C)C)cnn2c1` (single isomer, unassigned) [Example 647], 0.0013 µM; for `CC12CCC(c3cn4cc(C(=O)Nc5cccn(C(F)F)c5=O)c(OC5CCC5)cc4n3)(CO1)C2` (stereo not shown) [Example 538, 7-Cyclobutoxy-N-(1-(difluoromethyl)-2-oxo-1,2-dihydropyridin-3-yl)-2-(1-methyl-2-oxabicyclo[2.2.1]heptan-4-yl)imidazo[1,2-a]pyridine-6-carboxamide], 0.0003 µM.
In the case of `Cn1cccc(NC(=O)c2cn3cc(C45CCC(C)(C4)OC5)nc3cc2OC2CCC2)c1=O` (stereo not shown) [Example 422, 7-Cyclobutoxy-N-(1-methyl-2-oxo-1,2-dihydropyridin-3-yl)-2-(1-methyl-2-oxabicyclo[2.2.1]heptan-4-yl)imidazo[1,2-a]pyridine-6-carboxamide], the IC50 is 0.0005 µM. Against the preceding compound, the IC50 is about 1.7-fold higher.
On the same count and under the same terms, for `Cn1cccc(NC(=O)c2cn3cc(C45CCC(C)(C4)OC5)nc3cc2OC2CCCC2)c1=O` (stereo not shown) [Example 558] the value was 0.0011 µM; for `COCCn1ccc(NC(=O)c2cn3cc(C4C5COCC54)nc3cn2)n1` (stereo not shown) [Example 84], 7.51 µM.
The compound `CC(C)Oc1nc2nc(C34CCC(C)(CC3)OC4)cn2cc1C(=O)Nc1cc(F)n(C)n1` [Example 382, N-(5-fluoro-1-methyl-1H-pyrazol-3-yl)-7-isopropoxy-2-(1-methyl-2-oxabicyclo[2.2.2]octan-4-yl)imidazo[1,2-a]pyrimidine-6-carboxamide] returned an IC50 of 0.0046 µM.
The same measure, in the same setting: for `Cn1ccc(NC(=O)c2cn3cc([C@]45CC[C@](C)(C4)OC5)nc3cc2OC2CCC2)n1` (single isomer, unassigned) [Example 611] the value was 0.0013 µM; for `CCOc1nc(C(=O)Nc2cccc(F)c2Cl)cn2cc(C34COC(C)(C3)C4)nc12` [Example 485, N-(2-chloro-3-fluorophenyl)-8-ethoxy-2-(1-methyl-2-oxabicyclo[2.1.1]hexan-4-yl)imidazo[1,2-a]pyrazine-6-carboxamide], 0.009 µM.
Same read-out and setting: the result for `CC(C)Oc1cc2nc(C(F)(F)F)cn2cc1C(=O)Nc1cccc(C(F)F)n1` [Example 294, N-(6-(difluoromethyl)pyridin-2-yl)-7-isopropoxy-2-(trifluoromethyl)imidazo[1,2-a]pyridine-6-carboxamide] reads 0.0056 µM; that for `O=C(Nc1cccc(C(F)F)n1)c1cn2cc(C3CC3)nc2cc1OC1CCC1` [Example 474, 7-Cyclobutoxy-2-cyclopropyl-N-(6-(difluoromethyl)pyridin-2-yl)imidazo[1,2-a]pyridine-6-carboxamide], 0.0007 µM.
Same read-out and setting: the result for `COc1cccc(NC(=O)c2cn3cc(C4CCOCC4)nc3cn2)n1` [Example 81] reads 0.232 µM.
For the compound `CC(C)Oc1cc2nc(C34CCC(C3)OC4)cn2cc1C(=O)Nc1cccc(C(F)F)n1` (stereo not shown) [Example 246], the IC50 was 0.0002 µM.
Still for that read-out and setting: for `Cc1cnc2c(NC(=O)c3cn4cc([C@]56CC[C@](C)(C5)OC6)nc4nc3OC(C)C)cnn2c1` (single isomer, unassigned) [Example 617] the value was 0.0006 µM; for `CC(C)Oc1cc2nc(C3COCCO3)cn2cc1C(=O)Nc1cnn2cccnc12` (stereo not shown) [Example 331, 2-(1,4-Dioxan-2-yl)-7-isopropoxy-N-(pyrazolo[1,5-a]pyrimidin-3-yl)imidazo[1,2-a]pyridine-6-carboxamide], 0.002 µM; for `COc1ncccc1NC(=O)c1cn2cc(C34COC(C)(C3)C4)nc2c(OC(C)C)n1` [Example 337, 8-Isopropoxy-N-(2-methoxypyridin-3-yl)-2-(1-methyl-2-oxabicyclo[2.1.1]hexan-4-yl)imidazo[1,2-a]pyrazine-6-carboxamide], 0.0004 µM.
`COc1nscc1NC(=O)c1cn2cc(C34CCC(C)(C3)OC4)nc2cc1OC(C)C` (stereo not shown) [Example 513, 7-Isopropoxy-N-(3-methoxyisothiazol-4-yl)-2-(1-methyl-2-oxabicyclo[2.2.1]heptan-4-yl)imidazo[1,2-a]pyridine-6-carboxamide] showed an IC50 of 0.0003 µM.

Staying with this test, now noted: IRAK4 Biochemical Assay (1 mM ATP, 2 h) IC50 (μM), 1 mM ATP, 2 h, 100 pM IRAK4.
`COc1cccc(NC(=O)c2cn3cc(C45COC(C)(C4)C5)nc3c(F)c2OC(C)C)n1` [Example 548, 8-Fluoro-7-isopropoxy-N-(6-methoxypyridin-2-yl)-2-(1-methyl-2-oxabicyclo[2.1.1]hexan-4-yl)imidazo[1,2-a]pyridine-6-carboxamide trifluoroacetate] yielded an IC50 of 0.0082 µM.
`CC(C)Oc1nc2nc(C34COC(C)(C3)C4)cn2cc1C(=O)Nc1cccc(C2CCOC2)n1` (stereo not shown) [Example 359, 7-Isopropoxy-2-(1-methyl-2-oxabicyclo[2.1.1]hexan-4-yl)-N-(6-(tetrahydro-furan-3-yl)pyridin-2-yl)imidazo[1,2-a]pyrimidine-6-carboxamide trifluoroacetate] registered an IC50 of 0.0009 µM.
Compound `CC(C)Oc1nc2nc(C34COC(C)(C3)C4)cn2cc1C(=O)Nc1ccn(C2CCC2)n1` [Example 364, N-(1-cyclobutyl-1H-pyrazol-3-yl)-7-isopropoxy-2-(1-methyl-2-oxabicyclo[2.1.1]hexan-4-yl)imidazo[1,2-a]pyrimidine-6-carboxamide trifluoroacetate] displayed a half-inhibitory concentration (IC50) of 0.0057 µM.
Regarding `O=C(Nc1cccc(C(F)F)n1)c1cn2cc(C3CC3)nc2cc1OC1CC(F)(F)C1` [Example 476, 2-Cyclopropyl-7-(3,3-difluorocyclobutoxy)-N-(6-(difluoromethyl)pyridin-2-yl)imidazo[1,2-a]pyridine-6-carboxamide], the IC50 stood at 0.0088 µM.
In turn, `COc1cccc(NC(=O)c2cn3cc(C45CCC(C)(CC4)OC5)nc3cc2OC)n1` [Example 29] yielded an IC50 of 0.0041 µM.
`CC(C)Oc1nc2nc(C34COC(C)(C3)C4)cn2cc1C(=O)Nc1cccc(C#N)c1F` [Example 353, N-(3-cyano-2-fluorophenyl)-7-isopropoxy-2-(1-methyl-2-oxabicyclo[2.1.1]hexan-4-yl)imidazo[1,2-a]pyrimidine-6-carboxamide trifluoroacetate] yielded a half-maximal inhibitory concentration (IC50) of 0.0025 µM. Against the preceding compound, the IC50 is about 1.6-fold lower.
Still for that read-out and setting: the result for `COc1cccc(NC(=O)c2cn3cc([C@@]45COC[C@@H]4C5)nc3cc2OC)n1` [Example 30] reads 0.0735 µM; that for `COc1cccc(NC(=O)c2cn3cc(C4CCOCC4)nc3c(OC)n2)n1` [Example 77], 0.074 µM.
